Results published in the NIST ThermoML archive (doi:10.1016/j.jct.2017.02.009).

Assay: xn = mol fraction of the nth substance listed
Conditions: 100 kPa, Liquid; for mass density: Vibrating tube method; for viscosity: Capillary tube (Ostwald / Ubbelohde) method

O=C1CCCO1 [γ-butyrolactone] + C[S+](C)[O-]
Conditions | mass density, 293.15 K [kg/m3] | mass density, 298.15 K [kg/m3] | mass density, 303.15 K [kg/m3] | mass density, 313.15 K [kg/m3] | viscosity, 298.15 K [mPa·s]
x2 = 0 | 1129.4 | 1124.5 | 1119.6 | 1109.8 | 1.72
x2 = 0.051 | 1127.5 | 1122.6 | 1117.7 | 1107.9 | –
x2 = 0.098 | 1125.9 | 1121 | 1116.1 | 1106.3 | 1.724
x2 = 0.152 | 1124 | 1119.1 | 1114.2 | 1104.4 | –
x2 = 0.221 | 1121.7 | 1116.8 | 1111.9 | 1102.1 | 1.724
x2 = 0.251 | 1120.7 | 1115.7 | 1110.8 | 1101 | –
x2 = 0.298 | 1119.1 | 1114.2 | 1109.3 | 1099.5 | 1.724
x2 = 0.352 | 1117.4 | 1112.5 | 1107.6 | 1097.8 | –
x2 = 0.398 | 1116 | 1111 | 1106.1 | 1096.3 | 1.739
x2 = 0.447 | 1114.5 | 1109.6 | 1104.7 | 1094.8 | –
x2 = 0.498 | 1113 | 1108 | 1103.1 | 1093.3 | 1.763
x2 = 0.546 | 1111.6 | 1106.6 | 1101.7 | 1091.9 | –
x2 = 0.596 | 1110.2 | 1105.2 | 1100.3 | 1090.4 | 1.791
x2 = 0.648 | 1108.7 | 1103.8 | 1098.8 | 1089 | –
x2 = 0.7 | 1107.4 | 1102.4 | 1097.4 | 1087.6 | 1.839
x2 = 0.742 | 1106.3 | 1101.3 | 1096.4 | 1086.4 | –
x2 = 0.797 | 1104.9 | 1099.9 | 1094.9 | 1085 | 1.883
x2 = 0.848 | 1103.6 | 1098.7 | 1093.7 | 1083.7 | –
x2 = 0.9 | 1102.4 | 1097.4 | 1092.4 | 1082.5 | 1.921
x2 = 0.95 | 1101.3 | 1096.3 | 1091.3 | 1081.3 | –
